Where “and” joins values, the source holds several entries; their conditions need not be identical. Identical values can stand only once. Calls of active or inactive are those of the source.
Tests used:
[1] = Luminescence Cell-Based Dose Response to Identify Activators of 5'UTR Stem-Loop Driven Prion Protein mRNA Translation in H4-C Neuroglioblastoma Cells. [Related pubchem assays: 1829 (Project Summary), 1814 (Primary HTS)]; assay type: functional
[2] = Luminescence Cell-Based Dose Response HTS to Identify Activators of Luciferase Translation or Activity in H4 […] Cells. [Related pubchem assays: 1829 (Project Summary), 1814 (Primary HTS)]; assay type: functional
[3] = tested on: H4; test: Luminescence Cell-Based Dose Response HTS to Identify Activators of 5'UTR Stem-Loop Driven Prion Protein mRNA Translation in H4 Neuroglioblastoma Cells. [Related pubchem assays: 1829 (Project Summary), 1814 (Primary HTS)]; assay type: functional; details: Homo sapiens
[4] = Luminescence Cell-Based Dose Response to Identify Activators of Luciferase Translation or Activity in H4-C Neuroglioblastoma Cells. [Related pubchem assays: 1829 (Project Summary), 1814 (Primary HTS)]; assay type: functional
[5] = Luminescence Cell-Based Dose Confirmation to Identify Activators of 5'UTR Stem-Loop Driven Alpha-Synuclein mRNA Translation in H4 Neuroglioblastoma Cells. [Related pubchem assays: 1829 (Project Summary), 1814 (Primary HTS)]; assay type: functional
[6] = molecular target: Beta-galactosidase (Escherichia coli, UniProt Q8VNN2); test: Dose response counterscreen for EBI2 assay utilizing the enzyme, b-galactosidase.; assay type: functional
Sequence of Beta-galactosidase (Q8VNN2 whole entry): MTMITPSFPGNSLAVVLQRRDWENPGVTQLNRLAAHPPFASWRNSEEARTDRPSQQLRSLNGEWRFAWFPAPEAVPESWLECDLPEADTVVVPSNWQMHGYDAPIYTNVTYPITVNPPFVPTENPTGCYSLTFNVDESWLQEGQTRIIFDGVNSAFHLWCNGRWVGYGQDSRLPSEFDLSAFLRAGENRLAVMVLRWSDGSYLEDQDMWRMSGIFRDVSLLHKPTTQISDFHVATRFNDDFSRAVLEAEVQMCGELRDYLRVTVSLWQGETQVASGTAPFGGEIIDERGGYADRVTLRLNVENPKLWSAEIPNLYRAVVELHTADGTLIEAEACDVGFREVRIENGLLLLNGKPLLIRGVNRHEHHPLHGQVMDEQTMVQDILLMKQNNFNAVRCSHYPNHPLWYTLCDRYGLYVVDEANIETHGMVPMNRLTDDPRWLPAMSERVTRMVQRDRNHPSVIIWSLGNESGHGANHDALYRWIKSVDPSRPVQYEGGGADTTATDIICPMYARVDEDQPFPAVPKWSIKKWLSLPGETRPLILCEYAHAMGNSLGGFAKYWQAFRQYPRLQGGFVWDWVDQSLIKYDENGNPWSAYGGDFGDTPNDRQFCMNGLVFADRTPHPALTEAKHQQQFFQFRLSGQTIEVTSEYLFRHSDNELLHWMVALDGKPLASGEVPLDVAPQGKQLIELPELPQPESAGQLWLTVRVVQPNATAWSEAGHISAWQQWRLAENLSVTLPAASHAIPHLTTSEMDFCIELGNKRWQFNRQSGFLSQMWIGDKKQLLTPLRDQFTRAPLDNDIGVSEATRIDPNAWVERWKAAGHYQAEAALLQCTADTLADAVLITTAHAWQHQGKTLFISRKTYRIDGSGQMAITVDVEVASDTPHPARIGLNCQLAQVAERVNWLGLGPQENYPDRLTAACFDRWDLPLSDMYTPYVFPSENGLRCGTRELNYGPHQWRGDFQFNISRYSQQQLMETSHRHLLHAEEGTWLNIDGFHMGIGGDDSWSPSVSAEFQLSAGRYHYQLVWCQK

[7] = molecular target: Cytochrome P450 3A4 (Homo sapiens, UniProt P08684); details: Potency;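 further: confirmatory qHTS run detecting inhibitors and substrates of CYP3A4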
Sequence of Cytochrome P450 3A4 (P08684 whole entry): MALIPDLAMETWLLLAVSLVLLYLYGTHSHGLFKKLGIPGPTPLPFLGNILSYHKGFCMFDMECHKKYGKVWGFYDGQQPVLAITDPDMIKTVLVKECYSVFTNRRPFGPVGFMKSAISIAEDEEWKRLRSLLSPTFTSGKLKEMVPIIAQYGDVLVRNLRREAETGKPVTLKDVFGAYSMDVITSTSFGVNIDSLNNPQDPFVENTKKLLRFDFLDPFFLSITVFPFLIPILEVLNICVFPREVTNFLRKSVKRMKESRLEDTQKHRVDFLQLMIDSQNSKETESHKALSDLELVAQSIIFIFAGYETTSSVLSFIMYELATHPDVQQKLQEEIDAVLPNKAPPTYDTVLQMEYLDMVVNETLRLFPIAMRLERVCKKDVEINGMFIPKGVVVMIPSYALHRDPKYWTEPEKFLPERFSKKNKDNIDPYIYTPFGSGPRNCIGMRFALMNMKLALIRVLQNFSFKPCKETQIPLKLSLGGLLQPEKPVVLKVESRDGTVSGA

[8] = molecular target: T1, DNA dC->dU-editing enzyme APOBEC-3A (Homo sapiens, UniProt P31941); test: A3A deaminase inhibition for selectivity – biochemical, dose response (AID 504722); assay type: functional
T1 sequence (P31941 whole entry): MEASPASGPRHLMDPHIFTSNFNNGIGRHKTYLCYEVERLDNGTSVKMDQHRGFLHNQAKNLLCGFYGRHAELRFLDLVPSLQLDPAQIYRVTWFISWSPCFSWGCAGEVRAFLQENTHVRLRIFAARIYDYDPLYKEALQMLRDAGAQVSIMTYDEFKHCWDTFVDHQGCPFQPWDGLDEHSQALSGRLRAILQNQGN

[9] = molecular target: T2, DNA dC->dU-editing enzyme APOBEC-3G (Homo sapiens, UniProt Q9HC16); test: Dose Response confirmation of small molecule APOBEC3G DNA Deaminase Inhibitors via a fluorescence-based single-stranded DNA deaminase assay. [Related pubchem assays (depositor defined):AID493012, AID493028]; assay type: functional
T2 sequence (Q9HC16 whole entry): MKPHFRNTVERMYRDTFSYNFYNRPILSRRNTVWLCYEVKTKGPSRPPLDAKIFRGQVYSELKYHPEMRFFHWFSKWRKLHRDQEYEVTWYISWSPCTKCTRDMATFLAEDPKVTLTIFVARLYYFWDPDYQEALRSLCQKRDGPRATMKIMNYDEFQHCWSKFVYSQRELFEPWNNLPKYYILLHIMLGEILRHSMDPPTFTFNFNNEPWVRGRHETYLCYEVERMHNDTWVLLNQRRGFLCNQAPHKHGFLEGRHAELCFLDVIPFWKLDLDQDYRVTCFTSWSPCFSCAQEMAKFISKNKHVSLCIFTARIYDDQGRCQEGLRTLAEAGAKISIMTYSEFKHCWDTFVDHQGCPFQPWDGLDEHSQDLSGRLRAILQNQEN

[10] = cells; assay type: functional, cell-based
[11] = cells; assay type: functional, cell-based; remark: listed apart in the source
[12] = molecular target: T3, DNA repair protein RAD52 homolog (Homo sapiens, UniProt P43351); assay type: functional, biochemical
T3 sequence (P43351 whole entry): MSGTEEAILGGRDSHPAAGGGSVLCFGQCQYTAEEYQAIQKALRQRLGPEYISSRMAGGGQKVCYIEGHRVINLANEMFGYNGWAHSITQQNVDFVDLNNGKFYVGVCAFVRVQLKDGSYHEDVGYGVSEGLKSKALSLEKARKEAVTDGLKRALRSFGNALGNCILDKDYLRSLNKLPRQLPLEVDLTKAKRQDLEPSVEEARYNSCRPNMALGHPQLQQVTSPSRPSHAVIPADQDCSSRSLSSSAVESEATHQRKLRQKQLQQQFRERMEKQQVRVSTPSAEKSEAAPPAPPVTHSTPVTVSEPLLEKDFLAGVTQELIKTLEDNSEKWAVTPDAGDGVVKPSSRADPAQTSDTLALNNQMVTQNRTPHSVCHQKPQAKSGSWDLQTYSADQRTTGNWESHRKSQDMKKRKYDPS

[13] = molecular target: Prothrombin (Homo sapiens, UniProt P00734); test: Thrombin 1536 HTS Dose Response Confirmation. [Related pubchem assays: 1046 (Thrombin 1536 HTS; hits were confirmed in this assay)]; assay type: functional
[14] = molecular target: Glyceraldehyde-3-phosphate dehydrogenase (Homo sapiens, UniProt P04406)
Sequence of Glyceraldehyde-3-phosphate dehydrogenase (P04406 whole entry): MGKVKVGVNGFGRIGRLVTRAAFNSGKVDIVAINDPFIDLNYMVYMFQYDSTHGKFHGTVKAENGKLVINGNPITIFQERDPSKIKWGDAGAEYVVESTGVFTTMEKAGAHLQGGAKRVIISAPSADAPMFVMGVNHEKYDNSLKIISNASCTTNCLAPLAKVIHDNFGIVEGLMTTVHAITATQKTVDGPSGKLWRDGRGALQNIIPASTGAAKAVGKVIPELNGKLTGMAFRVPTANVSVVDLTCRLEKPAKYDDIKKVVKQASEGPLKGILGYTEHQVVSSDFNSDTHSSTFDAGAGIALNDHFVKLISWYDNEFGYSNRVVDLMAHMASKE

[15] = molecular target: T4, Alkaline phosphatase, tissue-nonspecific isozyme (Homo sapiens, UniProt P05186); test: potency against alkaline phosphatase TNAP – biochemical, luminescent, dose response, SAR follow-up (AID 1056)
T4 sequence (P05186 whole entry): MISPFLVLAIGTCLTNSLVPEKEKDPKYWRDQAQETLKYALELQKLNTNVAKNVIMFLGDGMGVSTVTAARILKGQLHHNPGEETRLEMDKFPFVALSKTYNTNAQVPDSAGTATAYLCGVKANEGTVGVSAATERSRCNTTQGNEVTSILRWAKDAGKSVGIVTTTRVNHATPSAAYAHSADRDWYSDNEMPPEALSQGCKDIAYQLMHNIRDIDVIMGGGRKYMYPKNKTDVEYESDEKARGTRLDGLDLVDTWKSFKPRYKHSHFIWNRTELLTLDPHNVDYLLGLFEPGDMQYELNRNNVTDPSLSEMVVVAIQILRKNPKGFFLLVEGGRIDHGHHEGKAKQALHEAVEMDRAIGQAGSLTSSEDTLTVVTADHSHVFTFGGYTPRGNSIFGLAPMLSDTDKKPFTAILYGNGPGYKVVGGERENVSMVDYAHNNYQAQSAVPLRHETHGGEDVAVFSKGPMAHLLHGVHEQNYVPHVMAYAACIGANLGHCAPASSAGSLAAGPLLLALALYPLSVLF

[16] = HEK-293T cell viability reduction – luminescence, B-cell screen hits, cytotoxicity control for BCR NF-kB inhibitor project, dose response (AID 489021); assay type: functional, cell-based;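 further: HEK-293T cells carrying an NF-kB luciferase reporter; cells exposed to compound for about 14 hours before viability readout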
[17] = Luminescence Cell-Based Dose Confirmation HTS to Identify Activators of 5'UTR Stem-Loop Driven Alpha-Synuclein mRNA Translation in H4 Neuroglioblastoma Cells. [Related pubchem assays: 1829 (Project Summary), 1814 (Primary HTS)]; assay type: functional
[18] = molecular target: T5, Galanin receptor type 3 (Homo sapiens, UniProt O60755); test: Fluorescence-based cell-based primary high throughput dose response assay to identify antagonists of the Galanin Receptor 3 (GalR3).; assay type: functional
T5 sequence (O60755 whole entry): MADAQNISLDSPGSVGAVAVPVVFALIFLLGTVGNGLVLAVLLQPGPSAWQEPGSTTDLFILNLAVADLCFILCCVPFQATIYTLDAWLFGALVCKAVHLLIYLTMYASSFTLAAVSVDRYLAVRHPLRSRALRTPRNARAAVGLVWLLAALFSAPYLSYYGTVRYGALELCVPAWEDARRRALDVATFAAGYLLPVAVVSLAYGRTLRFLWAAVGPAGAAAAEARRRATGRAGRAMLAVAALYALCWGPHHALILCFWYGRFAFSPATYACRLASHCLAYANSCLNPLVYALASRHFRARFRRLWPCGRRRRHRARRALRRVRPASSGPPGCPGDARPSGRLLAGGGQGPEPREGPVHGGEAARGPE

[19] = cells; assay type: functional, cell-based; details: HEK-CNG
[20] = molecular target: Cytochrome P450 2D6 (Homo sapiens, UniProt P10635);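 further: CYP2D6 member of a cytochrome P450 panel assay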
Sequence of Cytochrome P450 2D6 (P10635 whole entry): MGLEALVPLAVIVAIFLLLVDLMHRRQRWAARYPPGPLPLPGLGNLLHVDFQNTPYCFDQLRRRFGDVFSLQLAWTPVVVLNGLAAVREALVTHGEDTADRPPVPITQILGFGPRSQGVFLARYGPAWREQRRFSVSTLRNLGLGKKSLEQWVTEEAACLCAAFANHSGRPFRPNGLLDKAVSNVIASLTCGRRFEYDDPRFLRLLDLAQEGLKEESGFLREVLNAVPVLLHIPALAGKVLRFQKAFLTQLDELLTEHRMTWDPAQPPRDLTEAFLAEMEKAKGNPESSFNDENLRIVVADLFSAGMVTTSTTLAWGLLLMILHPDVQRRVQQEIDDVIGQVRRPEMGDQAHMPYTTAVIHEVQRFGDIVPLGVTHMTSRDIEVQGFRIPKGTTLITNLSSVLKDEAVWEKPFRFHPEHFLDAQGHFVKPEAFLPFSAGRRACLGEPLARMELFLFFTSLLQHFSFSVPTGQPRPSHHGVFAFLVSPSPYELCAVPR

[21] = molecular target: Troponin, cardiac muscle (Homo sapiens, UniProt P19429+P45379+P63316); test: Fluorescence-based biochemical high throughput dose response assay for activators of the calcium sensitivity of cardiac Regulated Thin Filaments (RTF). [Related pubchem assays (depositor defined):AID493008, AID493018, AID504382, AID504383]; assay type: protein-complex assay
[22] = molecular target: Induced myeloid leukemia cell differentiation protein Mcl-1 (Homo sapiens, UniProt Q07820); assay type: functional
Sequence of Induced myeloid leukemia cell differentiation protein Mcl-1 (Q07820 whole entry): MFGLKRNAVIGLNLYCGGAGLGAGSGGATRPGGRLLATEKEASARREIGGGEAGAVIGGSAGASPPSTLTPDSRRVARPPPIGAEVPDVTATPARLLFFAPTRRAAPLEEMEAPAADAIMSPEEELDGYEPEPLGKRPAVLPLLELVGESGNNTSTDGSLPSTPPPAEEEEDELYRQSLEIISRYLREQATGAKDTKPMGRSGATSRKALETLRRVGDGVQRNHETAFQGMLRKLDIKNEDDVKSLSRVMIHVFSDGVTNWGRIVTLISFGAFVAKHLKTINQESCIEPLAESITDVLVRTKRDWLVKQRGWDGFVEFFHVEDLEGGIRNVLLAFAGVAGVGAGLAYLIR

[23] = THP-1 cell cytotoxicity, dose response, cytotoxicity control for non-replicating M. tuberculosis project (AID 489025); assay type: functional
[24] = cells; assay type: functional
[25] = molecular target: T1, DNA dC->dU-editing enzyme APOBEC-3A; test: Dose Response confirmation of small molecule APOBEC3A DNA Deaminase Inhibitors via a fluorescence-based single-stranded DNA deaminase assay. [Related pubchem assays (depositor defined):AID493011, AID493024]; assay type: functional
[26] = molecular target: T2, DNA dC->dU-editing enzyme APOBEC-3G; assay type: functional

With `Fc1ccc(/C=N/NC2=Nc3cccc4cccc2c34)cc1` the EC50 [1] was 0.233 µM (active), the EC50 [2] was < 0.1 µM (inconclusive) and the EC50 [3] was < 0.1 µM (active). For the same molecule, the EC50 [4] was 0.343 µM (active) and the EC50 [5] was 0.278 µM (active).

For `CCN1CCN(C(=O)c2cc3c(s2)-c2c(C)cccc2OC3)CC1`, the EC50 [2] was 5.32 µM (active), the EC50 [3] was 9.85 µM (active) and the IC50 [6] was > 80 µM (inactive).

In the case of `CCCCC/C=C\C/C=C\C/C=C\C/C=C\CCCC(=O)O` [ARACHIDONIC ACID], the AC50 [7] is reported as 39.8 µM (inconclusive) and 7.94 µM (inconclusive).

With `Cc1ccc(/C=N/n2c(S)nnc2-c2ccncc2)o1` the IC50 [8] was > 100 µM (inactive) and the IC50 [9] was 6.55 µM (active).

In the case of `Nc1cccc2ccccc12`, the AC50 [7] is reported as 31.6 µM (inconclusive).

In the case of `Nn1c(COc2ccc(Cl)cc2)n[nH]c1=S`, the IC50 [8] is reported as > 100 µM (inactive) and the IC50 [9] is reported as 2.49 µM (active).

With `O=[N+]([O-])c1[nH]cnc1/C=C/c1ccccc1` the IC50 [10] was > 29.9 µM (inactive) and the EC50 [11] was > 29.9 µM (inactive).

In the case of `Cc1c(C)n(C)c2ccc(C(=O)NCCCN3CCN(C)CC3)cc12`, the AC50 [12] is reported as 7.04 µM (active).

For `Fc1ccc(Oc2cnc3ccccc3n2)cc1`, the IC50 [13] was > 50 µM (not active).

With `COc1ccc(-c2nn(C)c(=O)c3ccccc23)cc1CNC(=O)C1CCCCC1` the IC50 [13] was > 50 µM (not active).

In the case of `O=C(/C=C/c1ccc(Cl)cc1)N1CCN(c2ccccn2)CC1`, the IC50 [6] is reported as > 80 µM (inactive).

For `Cc1ccc(S(=O)(=O)Nc2ccc3ccccc3c2)cc1`, the IC50 [14] was > 100 µM (not active) and the IC50 [15] was > 100 µM (inactive).

In the case of `Cn1c(=O)c2c(SCC(=O)Nc3ccccc3F)nc(-c3ccccc3F)nc2n(C)c1=O`, the IC50 [16] is reported as > 80 µM (inactive).

For `Cc1ccc(NC(=O)C2CCCN(c3ncccn3)C2)cc1F` (stereo unspecified), the EC50 [1] was 1.22 µM (active), the EC50 [17] was < 0.1 µM (active) and the EC50 [2] was 0.125 µM (inconclusive). The EC50 [3] was 6.45 µM (active), the EC50 [4] was 0.856 µM (active) and the EC50 [5] was 0.141 µM (active).

With `CO/C(O)=C1\C(C)=NC2=C(C(=O)CCC2)C1c1cn(Cc2ccc(Cl)cc2Cl)nc1-c1ccccc1` (stereo unspecified) the IC50 [18] was 3.85 µM (active), the EC50 [19] was > 29.9 µM (inactive) and the AC50 [20] was 3.55 µM (inconclusive).

With `O=S(=O)(Nc1cnc2ccccc2c1)c1ccc(Br)cc1OC(F)(F)F` the IC50 [14] was > 100 µM (not active) and the IC50 [15] was 1.5 µM (active).

With `COc1cccc(/C=C/C(=O)N2CCN(S(=O)(=O)c3ccccc3)CC2)c1` the IC50 [6] was > 80 µM (inactive).

For `CN(CC(=O)NCc1ccco1)S(=O)(=O)c1cccc2cccnc12`, the EC50 [21] was > 71.5 µM (inactive).

In the case of `COCCNc1nc(C)nc2c1nc(-c1ccccc1)n2CCN1CCCC1`, the AC50 [7] is reported as 25.1 µM (inconclusive).

In the case of `O=C(c1cc2cc(Cl)ccc2[nH]1)N1CCC2(CC1)OCCO2`, the IC50 [6] is reported as > 80 µM (inactive).

With `CCN(CC)c1ccc(/C=C2/C(=O)ON=C2C)cc1` the IC50 [16] was > 80 µM (inactive).

In the case of `Cn1c(SCC(=O)Nc2ccc3nc(SCC(=O)N4CCCC4)sc3c2)nnc1-c1ccccc1`, the IC50 [22] is reported as 2.83 µM (active).

With `Cc1ccccc1OCCNc1cc(N2CC(C)NC(C)C2)ccc1[N+](=O)[O-]` (stereo unspecified) the CC50 [23] was 21.4 µM (active) and the IC50 [24] was 12.8 µM (active).

With `CSC1=N/C(=C\c2ccc(C)o2)C(=O)S1` the IC50 [13] was > 50 µM (not active).

With `C[N+](C)(C)CCOC(=O)C1(c2ccccc2)CCCC1` the IC50 [25] was 1.06 µM (active) and the IC50 [26] was 1.12 µM (active).

For `COc1cccc(C(=O)N/N=C/c2ccc(Oc3ccc([N+](=O)[O-])cn3)c(OC)c2)c1`, the IC50 [25] was 3.44 µM (active) and the IC50 [26] was 3.84 µM (active).

In the case of `CCN(CC)c1ccc(NC(=O)c2cncc(Br)c2)cc1`, the EC50 [1] is reported as > 12 µM (not active), the EC50 [2] is reported as 1.48 µM (active) and the EC50 [3] is reported as 14.3 µM (active). For the same molecule, the EC50 [4] was > 12 µM (not active) and the EC50 [5] was 0.53 µM (active).

In the case of `Cc1c(C(=O)N2CCc3ccccc3C2)oc2ccc(S(=O)(=O)N3CC(C)CC(C)C3)cc12` (stereo unspecified), the IC50 [10] is reported as > 29.9 µM (inactive) and the EC50 [11] is reported as > 29.9 µM (inactive).

In the case of `Fc1ccccc1/C=N/n1c(S)nnc1-c1cccnc1`, the IC50 [8] is reported as > 100 µM (inactive) and the IC50 [9] is reported as 3.16 µM (active).

Source: ChEMBL document CHEMBL1201862, “PubChem BioAssay data set” (2004)
